The conditions of assay [1]: cited from earlier work.
A short description of assay [2]: Sweetness concentration response curve against sucrose reference standards, trained sensory panel. The assay is classed as in vivo, human. The note with it: for potency, times as sweet as sucrose at 5 SEV: at 5 sucrose equivalent value (SEV). Here is the method:
A blend composed of 80% purified mogroside-V (Chem Faces, CFS202202), 15% 11-oxo-mogroside-V (Chem Faces, CFS202201), and 5% mogroside IIIA-1 (Chem Faces, CFS202201) was diluted to six different concentrations (from 100 ppm to 650 ppm) in spring water (Ice Mountain, retail). For each solution, a set of five reference standards of sucrose dissolved in water in 0.5% (w/w) concentration increments was also prepared. Each concentration of the mogroside blend was evaluated by 6-8 trained judges. Samples were presented in 4-oz soufflé cups at room temperature, and the test sample was labeled with a random 3-digit code. Panelists tasted the blind-coded sample compared to the set of reference samples to determine the sweetness intensity score to the nearest 0.1 unit. Each concentration was evaluated in duplicate. The sweetness intensity scores were then plotted against the mogroside blend concentration to make a concentration response curve, and the best fitting Beidler equation was generated.
V90 is a 90% pure mogroside V containing about 6% 11-oxo mogroside-V. Five different concentrations of V90 (Huacheng Bio, LHGE-230401), ranging from 100 ppm to 500 ppm, were diluted in spring water (Ice Mountain, retail). Each dilution was presented to a panel of 7-8 judges experienced in evaluating sweeteners and was accompanied by a range of five sucrose solution reference standards bracketing the sweetness intensity of the test sample in 0.5% (w/w) increments. Panelists assigned a sweetness intensity score to each test sample, including blind duplicates, to the nearest 0.1 unit. All samples were served at room temperature in 4-oz soufflé cups with the test samples labeled with random 3-digit codes. Water and saltine crackers were provided for rinsing between samples.
Both individual mogrosides were also evaluated at five different concentrations in spring water (Ice Mountain, retail) for sweetness intensity. 11-oxo-mogroside was diluted to concentrations ranging from 200 ppm to 600 ppm and mogroside IIIA-1 was diluted to concentrations from 100 to 500 ppm. For each concentration, a set of five sucrose solution reference standards were prepared in 0.5% (w/w) increments to approximately bracket the sweetness intensity of the test sample. A panel of 6-8 trained judges evaluated each test sample in duplicate, accompanied by the corresponding reference standards, and assigned a sweetness intensity score to the sample to the nearest 0.1 unit. Samples were presented in 4-oz soufflé cups at room temperature, and the test sample was labeled with a random 3-digit code. The sweetness intensity scores were then plotted as a function of mogroside concentration to make a concentration response curve, and the best fitting Beidler equation was generated.
The error bars around each point represent 1 standard deviation. The data fit a Beidler equation with an r2 value of 0.961. The equation for this line is:
SEV=16.08*C/(521.2+C) • where SEV is the % sucrose equivalent sweetness as determined by sensory panel and C is the concentration of mogroside blend in ppm or mg/L.
P=SEV*10,000/C • where C is the concentration of the mogroside blend in ppm or mg/L and SEV is the % sucrose equivalent sweetness determined by sensory panel.

A short description of assay [3]: Temporal properties: onset of sweetness, time to maximum sweetness, aftertaste decay, trained sensory panel. As to conditions: solutions at about 6 SEV. It is filed as in vivo, human. As for the experimental part:
Equi-sweet solutions at about 6 SEV were made in spring water (Ice Mountain, retail) of the following sweeteners: purified mogroside-V (Chem Faces, CFS202202), rebaudioside M (95%, Tate & Lyle, lot #1802-2302-1), rebaudioside A (95%, Tate & Lyle, 210617-01), and monk fruit (50% mogroside V, Tate & Lyle, 45GF220305). Another solution was prepared at about 6 SEV of a blend composed of 80% purified mogroside-V (Chem Faces, CFS202202), 15% 11-oxo-mogroside-V (Chem Faces, CFS202201), and 5% mogroside IIIA-1 (Chem Faces, CFS202201). The concentration of each solution can be found in Table 7.
A set of samples of each solution was evaluated by a panel of 7-9 trained judges. Panelists measured the time to onset of sweetness and time to reach maximum sweetness using a timer. Sweetness decay after expectorating was measured by rating sweetness intensity every 5 seconds on a 15-cm line scale graduated in evenly spaced 5-point increments and labeled low (0) to high (60). Samples were served at room temperature in 4-oz soufflé cups, labeled with random 3-digit codes. Water and saltine crackers were provided for rinsing between samples. Blind duplicates were evaluated in a second panel under the same conditions.
(§1) A solution of V90 was made at 410 ppm in spring water (Ice Mountain, retail) to be about 6 SEV. A second solution was made at about 6 SEV of purified mogroside-V (Chem Faces, CFS202202) at 325 ppm. A panel of 7-8 trained judges evaluated the temporal properties and taste attributes of each sample, including blind duplicates, in the same manner described previously in the Mogroside Blend 80/15/5 Taste Quality sections.
Two individual mogroside components of the blend, 11-oxo mogroside-V (Chem Faces, […]) and mogroside III-A1 (Chem Faces, 202301), were evaluated separately in spring water (Ice Mountain, retail) to determine the concentration needed to reach approximately 6 SEV. Solutions were then prepared at 3600 ppm of 11-oxo-mogroside-V and 600 ppm mogroside IIIA-1.
A panel of 6-7 trained judges evaluated the solutions by measuring the time to onset of sweetness and time to reach maximum sweetness using a timer. Decay of lingering aftertaste after expectorating was measured by rating sweetness intensity every 5 seconds on a 15-cm line scale graduated in evenly spaced 5-point increments and labeled low (0) to high (60). Samples were served at room temperature in 4-oz soufflé cups, labeled with random 3-digit codes, including blinded duplicates. Water and saltine crackers were provided for rinsing between samples.

Assay [4] in a line: Descriptive analysis of sweetener attributes, sensory panel, 15-cm line scale. It is filed as in vivo, human.
From the text: The same samples described above were presented to a panel of 6-9 experienced judges for descriptive analysis. Solutions were blind-coded with random 3-digit codes and served at room temperature for evaluation. Panelists individually scored attributes of each sample, such as sweetness intensity, bitterness, astringency, and the presence of side flavors such as licorice or fruitiness. Scores were based on a 15-cm line scale marked with evenly spaced 5-point increments from low (0) to high (60). Samples were evaluated in duplicate. Water and saltine crackers were provided for rinsing between samples.
as §1
The panel also evaluated the intensity of several sensory attributes such as bitterness, astringency, caramel flavor, and fruitiness. The same 15-cm line scale was used for scoring, labeled from low (0) to high (60) with evenly spaced 5-point increments. The samples were served in 4-oz soufflé cups that were labeled with random 3-digit codes. Samples were evaluated at room temperature and included blind duplicates. Water and saltine crackers were provided for rinsing between samples. A 400-ppm solution of V90 (Huacheng Bio, LHGE-230401) was tasted as a reference at the beginning of the descriptive analysis session for calibration verification among panelists.

Setting [5] is: sucrose, not evaluated in this test.
The mark [6] stands for this setting: about 6 SEV in spring water, 0=low, 60=high.

The values that follow come from patent publication US20250290110A1, “MOGROSIDE COMPOSITIONS AND METHODS OF PRODUCING SAME” (Elo Life Systems, priority 2024, published 2025).

For `OC[C@H]1O[C@@](CO)(O[C@H]2O[C@H](CO)[C@@H](O)[C@H](O)[C@H]2O)[C@@H](O)[C@@H]1O` [sucrose], the “sweetness decay time (typical value)” value in assay [1] (6 SEV solution of sucrose) is 20 to 25 s. In addition, in assay [1] (setting [5]), the “onset of sweetness (general value, not evaluated in this test)” value is reported as “about 0.5 seconds” and the “time to reach maximum sweetness (general value, not evaluated in this test)” value is given as “around 1 second”.

For `C[C@H](CC[C@@H](O[C@@H]1O[C@H](CO[C@@H]2O[C@H](CO)[C@@H](O)[C@H](O)[C@H]2O)[C@@H](O)[C@H](O)[C@H]1O[C@@H]1O[C@H](CO)[C@@H](O)[C@H](O)[C@H]1O)C(C)(C)O)[C@H]1CC[C@@]2(C)[C@@H]3CC=C4[C@@H](CC[C@H](O[C@@H]5O[C@H](CO[C@@H]6O[C@H](CO)[C@@H](O)[C@H](O)[C@H]6O)[C@@H](O)[C@H](O)[C@H]5O)C4(C)C)[C@]3(C)C(=O)C[C@]12C` [11-oxo-mogroside V], the “SEV at 1,000 ppm” value in assay [2] (1,000 ppm, from Beidler curve) was found to be 4.2 SEV. Moreover, in assay [2] (at 5 SEV, spring water, room temperature), the “Potency at 5 SEV” value came out at 28×. For the same molecule, the “potency, times as sweet as sucrose at 5 SEV” value in assay [2] (spring water, room temperature, listed as 11-oxo mogroside-V) is on record as “approximately 28 times as sweet as sucrose”. In assay [2] (spring water, room temperature, listed as 11-oxo-mogroside-V), the “potency, times as sweet as sucrose at 5 SEV” value turned out to be 28 times as sweet as sucrose. Besides, the “sweetness decay time after expectorating” value in assay [3] is on record as “about 45 seconds”. In addition, in assay [4] (setting [6]), the “Astringent, average intensity score” value is 4.3; the “Bitter Linger, average intensity score” value turned out to be 0.7; the “Bitterness, average intensity score” value is on record as 7.7; the “Body, average intensity score” value amounted to 12.7. Besides, in assay [4] (setting [6]), the “Caramel, average intensity score” value is recorded as 4.8; the “Fruity, average intensity score” value is reported as 2.1; the “Licorice, average intensity score” value was determined as 2.1; the “Sweet Linger, average intensity score” value is reported as 17.1. Besides, in assay [4] (setting [6]), the “Sweetness, average intensity score” value was 37.1. Moreover, the “taste quality in words” value in assay [4] (sensory panel) is listed as “slight bitterness”.
